Assay results published in EP0726261A1, “Herbidical 1,2,4 thiadiazoles” (American Cyanamid Company, priority 1995, dated 1996).

Experiments:
Format in all cases: in vivo
Hordeum vulgare [1] = assay: Preemergence herbicidal activity (Example 67); design: herbicide rating, HORVW: scale not given here; details: pre, 800 g/ha; for herbicide rating, HORVW: rated about 1-3 weeks after treatment
Description: (§1) Herbicidal evaluation of compounds of the invention is conducted on the following plant species:
(§2) The soil is a prepared horticultural substrate containing 30% peat, 20% volcanic clay, 30% bark residues and 20% polyamide/styromull in a 1:3 mixture with loamy sand. Test solutions are prepared by dissolving the test compound in acetone containing 0.5% of an alkylphenol/ethylene oxide condensate under the trademark, TRITON® X-155, and diluting with water as needed. The test solutions are applied as a spray to the 3-6 week old seedling plants at dose rates corresponding to 800g/ha in a volume equivalent to 400 L/ha. A pneumatic spraying device employing a Teejet nozzle SS 8002E operating at 3 bar is used for a predetermined time. After spraying, the treated plants are placed on greenhouse benches and cared for in a manner commensurate with conventional greenhouse practice. After 10-21 days, the treated plants are evaluated and rated according to the rating system provided below.
(§3) The soil surface is then sprayed with test solutions as described in the postemergence evaluation hereinabove. After spraying, the treated cups are placed on greenhouse benches and cared for in the manner commensurate with conventional greenhouse practice. About 1-3 weeks after treatment the cups are evaluated and rated according to the rating system provided hereinabove.

Amaranthus retroflexus [2] = assay: Postemergence herbicidal activity (Example 67); details: pos, 800 g/ha; for herbicide rating, AMARE: rated after 10-21 days
Description: as §1, §2

Triticum aestivum [3] = assay: Postemergence herbicidal activity (Example 67); details: pos, 800 g/ha; for herbicide rating, TRZAW: rated after 10-21 days
Description: as §1, §2

Galium aparine [4] = assay: Postemergence herbicidal activity (Example 67); details: pos, 800 g/ha; for herbicide rating, GALAP: rated after 10-21 days
Description: as §1, §2

Alopecurus myosuroides [5] = assay: Postemergence herbicidal activity (Example 67); details: pos, 800 g/ha; for herbicide rating, ALOMY: rated after 10-21 days
Description: as §1, §2

Veronica persica [6] = assay: Postemergence herbicidal activity (Example 67); details: pos, 800 g/ha; for herbicide rating, VERPE: rated after 10-21 days
Description: as §1, §2

Helianthus annuus [7] = assay: Postemergence herbicidal activity (Example 67); details: pos, 800 g/ha; for herbicide rating, HELAN: rated after 10-21 days
Description: as §1, §2

Ipomoea hederacea [8] = assay: Postemergence herbicidal activity (Example 67); details: pos, 800 g/ha; for herbicide rating, IPOHE: rated after 10-21 days
Description: as §1, §2

Setaria viridis [9] = assay: Postemergence herbicidal activity (Example 67); details: pos, 800 g/ha; for herbicide rating, SETVI: rated after 10-21 days
Description: as §1, §2

Zea mays [10] = assay: Postemergence herbicidal activity (Example 67); details: pos, 800 g/ha; for herbicide rating, ZEAMX: rated after 10-21 days
Description: as §1, §2

Hordeum vulgare [11] = assay: Postemergence herbicidal activity (Example 67); details: pos, 800 g/ha; for herbicide rating, HORVW: rated after 10-21 days
Description: as §1, §2

Abutilon theophrasti [12] = assay: Postemergence herbicidal activity (Example 67); details: pos, 800 g/ha; for herbicide rating, ABUTH: rated after 10-21 days
Description: as §1, §2

Chenopodium album [13] = assay: Postemergence herbicidal activity (Example 67); details: pos, 800 g/ha; for herbicide rating, CHEAL: rated after 10-21 days
Description: as §1, §2

Amaranthus retroflexus [14] = assay: Preemergence herbicidal activity (Example 67); details: pre, 800 g/ha; for herbicide rating, AMARE: rated about 1-3 weeks after treatment
Description: as §1, §2, §3

Galium aparine [15] = assay: Preemergence herbicidal activity (Example 67); details: pre, 800 g/ha; for herbicide rating, GALAP: rated about 1-3 weeks after treatment
Description: as §1, §2, §3

Veronica persica [16] = assay: Preemergence herbicidal activity (Example 67); details: pre, 800 g/ha; for herbicide rating, VERPE: rated about 1-3 weeks after treatment
Description: as §1, §2, §3

Helianthus annuus [17] = assay: Preemergence herbicidal activity (Example 67); details: pre, 800 g/ha; for herbicide rating, HELAN: rated about 1-3 weeks after treatment
Description: as §1, §2, §3

Ipomoea hederacea [18] = assay: Preemergence herbicidal activity (Example 67); details: pre, 800 g/ha; for herbicide rating, IPOHE: rated about 1-3 weeks after treatment
Description: as §1, §2, §3

Zea mays [19] = assay: Preemergence herbicidal activity (Example 67); details: pre, 800 g/ha; for herbicide rating, ZEAMX: rated about 1-3 weeks after treatment
Description: as §1, §2, §3

Abutilon theophrasti [20] = assay: Preemergence herbicidal activity (Example 67); details: pre, 800 g/ha; for herbicide rating, ABUTH: rated about 1-3 weeks after treatment
Description: as §1, §2, §3

Chenopodium album [21] = assay: Preemergence herbicidal activity (Example 67); details: pre, 800 g/ha; for herbicide rating, CHEAL: rated about 1-3 weeks after treatment
Description: as §1, §2, §3

Setaria viridis [22] = assay: Preemergence herbicidal activity (Example 67); design: herbicide rating, SETVI: scale not given here; details: pre, 800 g/ha; for herbicide rating, SETVI: rated about 1-3 weeks after treatment
Description: as §1, §2, §3

Alopecurus myosuroides [23] = assay: Preemergence herbicidal activity (Example 67); design: herbicide rating, ALOMY: scale not given here; details: pre, 800 g/ha; for herbicide rating, ALOMY: rated about 1-3 weeks after treatment
Description: as §1, §2, §3

Triticum aestivum [24] = assay: Preemergence herbicidal activity (Example 67); design: herbicide rating, TRZAW: scale not given here; details: pre, 800 g/ha; for herbicide rating, TRZAW: rated about 1-3 weeks after treatment
Description: as §1, §2, §3

## COCCc1nsc(C(=O)N[C@@H](C)c2ccccc2)n1 [Example 34]
Hordeum vulgare [1]
  herbicide rating, HORVW: 0
Amaranthus retroflexus [2]
  herbicide rating, AMARE: 0
Triticum aestivum [3]
  herbicide rating, TRZAW: 3 (16-29%)
Galium aparine [4]
  herbicide rating, GALAP: 1 (1-5%)
Alopecurus myosuroides [5]
  herbicide rating, ALOMY: 3 (16-29%)
Veronica persica [6]
  herbicide rating, VERPE: 2 (6-15%)
Helianthus annuus [7]
  herbicide rating, HELAN: 2 (6-15%)
Ipomoea hederacea [8]
  herbicide rating, IPOHE: 4 (30-44%)
Setaria viridis [9]
  herbicide rating, SETVI: 3 (16-29%)
Zea mays [10]
  herbicide rating, ZEAMX: 0
Hordeum vulgare [11]
  herbicide rating, HORVW: 0
Abutilon theophrasti [12]
  herbicide rating, ABUTH: 1 (1-5%)
Chenopodium album [13]
  herbicide rating, CHEAL: 2 (6-15%)
Amaranthus retroflexus [14]
  herbicide rating, AMARE: 0
Galium aparine [15]
  herbicide rating, GALAP: 0
Veronica persica [16]
  herbicide rating, VERPE: 3 (16-29%)
Helianthus annuus [17]
  herbicide rating, HELAN: 0
Ipomoea hederacea [18]
  herbicide rating, IPOHE: 0
Zea mays [19]
  herbicide rating, ZEAMX: 0
Abutilon theophrasti [20]
  herbicide rating, ABUTH: 0
Chenopodium album [21]
  herbicide rating, CHEAL: 0
Setaria viridis [22]
  herbicide rating, SETVI: 0
Alopecurus myosuroides [23]
  herbicide rating, ALOMY: 0
Triticum aestivum [24]
  herbicide rating, TRZAW: 0

## COc1ccc(-c2nsc(C(=O)NCc3cccs3)n2)cc1 [Example 36]
Hordeum vulgare [1]
  herbicide rating, HORVW: 0
Amaranthus retroflexus [2]
  herbicide rating, AMARE: 2 (6-15%)
Triticum aestivum [3]
  herbicide rating, TRZAW: 3 (16-29%)
Galium aparine [4]
  herbicide rating, GALAP: 2 (6-15%)
Alopecurus myosuroides [5]
  herbicide rating, ALOMY: 3 (16-29%)
Veronica persica [6]
  herbicide rating, VERPE: 2 (6-15%)
Helianthus annuus [7]
  herbicide rating, HELAN: 4 (30-44%)
Ipomoea hederacea [8]
  herbicide rating, IPOHE: 3 (16-29%)
Setaria viridis [9]
  herbicide rating, SETVI: 7 (80-90%)
Zea mays [10]
  herbicide rating, ZEAMX: 0
Hordeum vulgare [11]
  herbicide rating, HORVW: 0
Abutilon theophrasti [12]
  herbicide rating, ABUTH: 1 (1-5%)
Chenopodium album [13]
  herbicide rating, CHEAL: 3 (16-29%)
Amaranthus retroflexus [14]
  herbicide rating, AMARE: 0
Galium aparine [15]
  herbicide rating, GALAP: 0
Veronica persica [16]
  herbicide rating, VERPE: 0
Helianthus annuus [17]
  herbicide rating, HELAN: 0
Ipomoea hederacea [18]
  herbicide rating, IPOHE: 2 (6-15%)
Zea mays [19]
  herbicide rating, ZEAMX: 3 (16-29%)
Abutilon theophrasti [20]
  herbicide rating, ABUTH: 0
Chenopodium album [21]
  herbicide rating, CHEAL: 0
Setaria viridis [22]
  herbicide rating, SETVI: 0
Alopecurus myosuroides [23]
  herbicide rating, ALOMY: 0
Triticum aestivum [24]
  herbicide rating, TRZAW: 0

## CC(NC(=O)c1nc(-c2c(F)cccc2F)ns1)c1cccs1 (racemic) [Example 58, (R/S)-3-(2,6-Difluorophenyl)-[1,2,4]thiadiazole-5-carboxylic acid, [1-(2-thienyl)ethyl]amide]
Hordeum vulgare [1]
  HOR VW rating: 0
Amaranthus retroflexus [2]
  AMA RE rating: 7 (80-90%)
Triticum aestivum [3]
  TRZ AW rating: 2 (6-15%)
Galium aparine [4]
  GAL AP rating: 6 (65-79%)
Veronica persica [6]
  VER PE rating: 4 (30-44%)
Helianthus annuus [7]
  HEL AN rating: 9 (100% effect)
Setaria viridis [9]
  SET VI rating: 2 (6-15%)
Zea mays [10]
  ZEA MX rating: 0
Hordeum vulgare [11]
  HOR VW rating: 3 (16-29%)
Chenopodium album [13]
  CHE AL rating: 6 (65-79%)
Amaranthus retroflexus [14]
  AMA RE rating: 0
Galium aparine [15]
  GAL AP rating: 0
Veronica persica [16]
  VER PE rating: 0
Helianthus annuus [17]
  HEL AN rating: 0
Zea mays [19]
  ZEA MX rating: 0
Chenopodium album [21]
  CHE AL rating: 0
Setaria viridis [22]
  SET VI rating: 0
Triticum aestivum [24]
  TRZ AW rating: 0

## C[C@H](NC(=O)c1nc(-c2c(F)cccc2F)ns1)c1ccccc1 [Example 59, (S)-3-(2,6-Difluorophenyl)-[1,2,4]thiadiazole-5-carboxylic acid, 1-(phenylethyl)amide]
Hordeum vulgare [1]
  HOR VW rating: 0
Amaranthus retroflexus [2]
  AMA RE rating: 8 (91-99%)
Triticum aestivum [3]
  TRZ AW rating: 3 (16-29%)
Galium aparine [4]
  GAL AP rating: 6 (65-79%)
Veronica persica [6]
  VER PE rating: 8 (91-99%)
Helianthus annuus [7]
  HEL AN rating: 6 (65-79%)
Setaria viridis [9]
  SET VI rating: 3 (16-29%)
Zea mays [10]
  ZEA MX rating: 0
Hordeum vulgare [11]
  HOR VW rating: 3 (16-29%)
Chenopodium album [13]
  CHE AL rating: 7 (80-90%)
Amaranthus retroflexus [14]
  AMA RE rating: 3 (16-29%)
Galium aparine [15]
  GAL AP rating: 3 (16-29%)
Veronica persica [16]
  VER PE rating: 6 (65-79%)
Helianthus annuus [17]
  HEL AN rating: 0
Zea mays [19]
  ZEA MX rating: 0
Chenopodium album [21]
  CHE AL rating: 0
Setaria viridis [22]
  SET VI rating: 3 (16-29%)
Triticum aestivum [24]
  TRZ AW rating: 0

## O=C(NCc1cccs1)c1nc(-c2c(F)cccc2F)ns1 [Example 60]
Hordeum vulgare [1]
  HOR VW rating: 0
Amaranthus retroflexus [2]
  AMA RE rating: 5 (45-64%)
Triticum aestivum [3]
  TRZ AW rating: 0
Galium aparine [4]
  GAL AP rating: 0
Veronica persica [6]
  VER PE rating: 0
Helianthus annuus [7]
  HEL AN rating: 3 (16-29%)
Setaria viridis [9]
  SET VI rating: 0
Zea mays [10]
  ZEA MX rating: 3 (16-29%)
Hordeum vulgare [11]
  HOR VW rating: 0
Chenopodium album [13]
  CHE AL rating: 0
Amaranthus retroflexus [14]
  AMA RE rating: 0
Galium aparine [15]
  GAL AP rating: 0
Veronica persica [16]
  VER PE rating: 0
Helianthus annuus [17]
  HEL AN rating: 0
Zea mays [19]
  ZEA MX rating: 0
Chenopodium album [21]
  CHE AL rating: 0
Setaria viridis [22]
  SET VI rating: 0
Triticum aestivum [24]
  TRZ AW rating: 0

## COc1ccc(-c2nsc(C(=O)NC(C)c3ccsc3)n2)cc1 (racemic) [Example 61]
Hordeum vulgare [1]
  HOR VW rating: 0
Amaranthus retroflexus [2]
  AMA RE rating: 0
Triticum aestivum [3]
  TRZ AW rating: 0
Galium aparine [4]
  GAL AP rating: 0
Alopecurus myosuroides [5]
  ALO MY rating: 1 (1-5%)
Veronica persica [6]
  VER PE rating: 0
Helianthus annuus [7]
  HEL AN rating: 2 (6-15%)
Ipomoea hederacea [8]
  IPO HE rating: 0
Setaria viridis [9]
  SET VI rating: 0
Zea mays [10]
  ZEA MX rating: 0
Hordeum vulgare [11]
  HOR VW rating: 0
Abutilon theophrasti [12]
  ABU TH rating: 0
Amaranthus retroflexus [14]
  AMA RE rating: 0
Galium aparine [15]
  GAL AP rating: 0
Veronica persica [16]
  VER PE rating: 0
Helianthus annuus [17]
  HEL AN rating: 0
Ipomoea hederacea [18]
  IPO HE rating: 0
Zea mays [19]
  ZEA MX rating: 0
Abutilon theophrasti [20]
  ABU TH rating: 0
Setaria viridis [22]
  SET VI rating: 0
Alopecurus myosuroides [23]
  ALO MY rating: 0
Triticum aestivum [24]
  TRZ AW rating: 0
